Legend:
S. epidermidis 433 = assay: MIC, hospital MRSE strain; type: cell-based, Staphylococcus epidermidis; conditions: hospital MRSE S. epidermidis 433
Procedure: (§1) The antimicrobial activity of the compounds was tested on Gram-positive bacteria (Staphylococcus aureus NCTC 4163, Staphylococcus aureus ATCC 25923, Staphylococcus aureus ATCC 6538, Staphylococcus aureus ATCC 29213, Staphylococcus epidermidis ATCC 12228, Staphylococcus epidermidis ATCC 35984), Gram-negative rods (Escherichia coli ATCC 10538, Escherichia coli ATCC 25922, Pseudomonas aeruginosa ATCC 15442, Pseudomonas aeruginosa ATCC 27863) and yeasts (Candida albicans ATCC 10231, Candida albicans ATCC 90028, Candida parapsilosis ATCC 22019). Hospital methicillin-resistant strains of Staphylococcus aureus and Staphylococcus epidermidis were obtained from the collection of the Department of Pharmaceutical Microbiology, Medical University of Warsaw, Poland.
(§2) Antifungal activities were assessed using Mueller–Hinton agar + 2% glucose and 0.5 µg/mL methylene blue dye medium. Sterile filter paper discs (9 mm diameter, Whatman Number 3 chromatography paper) were dripped with tested compound solutions (in dimethylsulfoxide, DMSO) to load 400 μg of a given compound per disc. Dry discs were placed on the surface of appropriate agar medium. The results (diameter of the growth inhibition zone) were read after 18 h of incubation at 35 °C. Minimal inhibitory concentration (MIC) was tested by the twofold serial microdilution method (in 96-well microtiter plates) using Mueller–Hinton broth medium (Beckton Dickinson) for bacteria or RPMI-1640 medium for Candida species, according to CLSI guidelines. The stock solution of tested agent was prepared in DMSO and diluted in sterile water. […] The final inoculum of all studied microorganisms was 10^5 CFU/ mL^−1 (colony forming units per ml). Minimal inhibitory concentrations (the lowest concentration of a tested agent that prevents visible growth of a microorganism) were read after 18 h (bacteria) or 24 h (yeasts) of incubation at 35 °C.

S. epidermidis 471 = assay: MIC, hospital MRSE strain; type: cell-based, Staphylococcus epidermidis; conditions: hospital MRSE S. epidermidis 471
Procedure: as §1, §2

S. epidermidis 420 = assay: MIC, hospital MRSE strain; type: cell-based, Staphylococcus epidermidis; conditions: hospital MRSE S. epidermidis 420
Procedure: as §1, §2

S. epidermidis 431 = assay: MIC, hospital MRSE strain; type: cell-based, Staphylococcus epidermidis; conditions: hospital MRSE S. epidermidis 431
Procedure: as §1, §2

S. epidermidis 423 = assay: MIC, hospital MRSE strain; type: cell-based, Staphylococcus epidermidis; conditions: hospital MRSE S. epidermidis 423
Procedure: as §1, §2

S. epidermidis 511 = assay: MIC, hospital MRSE strain; type: cell-based, Staphylococcus epidermidis; conditions: hospital MRSE S. epidermidis 511
Procedure: as §1, §2

S. epidermidis 438 = assay: MIC, hospital MRSE strain; type: cell-based, Staphylococcus epidermidis; conditions: hospital MRSE S. epidermidis 438
Procedure: as §1, §2

S. epidermidis 469 = assay: MIC, hospital MRSE strain; type: cell-based, Staphylococcus epidermidis; conditions: hospital MRSE S. epidermidis 469
Procedure: as §1, §2

S. epidermidis 515 = assay: MIC, hospital MRSE strain; type: cell-based, Staphylococcus epidermidis; conditions: hospital MRSE S. epidermidis 515
Procedure: as §1, §2

S. epidermidis 432 = assay: MIC, hospital MRSE strain; type: cell-based, Staphylococcus epidermidis; conditions: hospital MRSE S. epidermidis 432
Procedure: as §1, §2

S. epidermidis 510 = assay: MIC, hospital MRSE strain; type: cell-based, Staphylococcus epidermidis; conditions: hospital MRSE S. epidermidis 510
Procedure: as §1, §2

S. epidermidis 437 = assay: MIC, hospital MRSE strain; type: cell-based, Staphylococcus epidermidis; conditions: hospital MRSE S. epidermidis 437
Procedure: as §1, §2

S. epidermidis 435 = assay: MIC, hospital MRSE strain; type: cell-based, Staphylococcus epidermidis; conditions: hospital MRSE S. epidermidis 435
Procedure: as §1, §2

S. epidermidis 424 = assay: MIC, hospital MRSE strain; type: cell-based, Staphylococcus epidermidis; conditions: hospital MRSE S. epidermidis 424
Procedure: as §1, §2

S. epidermidis 436 = assay: MIC, hospital MRSE strain; type: cell-based, Staphylococcus epidermidis; conditions: hospital MRSE S. epidermidis 436
Procedure: as §1, §2

S. epidermidis 513 = assay: MIC, hospital MRSE strain; type: cell-based, Staphylococcus epidermidis; conditions: hospital MRSE S. epidermidis 513
Procedure: as §1, §2

S. aureus ATCC 25923 = assay: MIC, twofold serial microdilution; type: cell-based, Staphylococcus aureus; conditions: S. aureus ATCC 25923, 18 h, 35 °C
Procedure: as §1, §2

S. aureus ATCC 29213 = assay: MIC, twofold serial microdilution; type: cell-based, Staphylococcus aureus; conditions: S. aureus ATCC 29213, 18 h, 35 °C
Procedure: as §1, §2

S. aureus NCTC 4163 = assay: MIC, twofold serial microdilution; type: cell-based, Staphylococcus aureus; conditions: S. aureus NCTC 4163, 18 h, 35 °C
Procedure: as §1, §2

S. aureus ATCC 6538 = assay: MIC, twofold serial microdilution; type: cell-based, Staphylococcus aureus; conditions: S. aureus ATCC 6538, 18 h, 35 °C
Procedure: as §1, §2

S. aureus 572 = assay: MIC, hospital MRSA strain; type: cell-based, Staphylococcus aureus; conditions: for MIC: hospital MRSA S. aureus 572
In short: (§3)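 Twofold serial broth microdilution per CLSI, in Mueller–Hinton broth for bacteria and RPMI-1640 for Candida, with a final inoculum of 10^5 CFU/mL. Compounds were dissolved in DMSO and diluted in sterile water.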

S. aureus 495 = assay: MIC, hospital MRSA strain; type: cell-based, Staphylococcus aureus; conditions: hospital MRSA S. aureus 495
In short: as §3

S. aureus 496 = assay: MIC, hospital MRSA strain; type: cell-based, Staphylococcus aureus; conditions: hospital MRSA S. aureus 496
In short: as §3

S. aureus 497 = assay: MIC, hospital MRSA strain; type: cell-based, Staphylococcus aureus; conditions: hospital MRSA S. aureus 497
In short: as §3

S. aureus 573 = assay: MIC, hospital MRSA strain; type: cell-based, Staphylococcus aureus; conditions: hospital MRSA S. aureus 573
In short: as §3

S. aureus 567 = assay: MIC, hospital MRSA strain; type: cell-based, Staphylococcus aureus; conditions: hospital MRSA S. aureus 567
In short: as §3

S. aureus 537 = assay: MIC, hospital MRSA strain; type: cell-based, Staphylococcus aureus; conditions: hospital MRSA S. aureus 537
In short: as §3

S. aureus 586 = assay: MIC, hospital MRSA strain; type: cell-based, Staphylococcus aureus; conditions: hospital MRSA S. aureus 586
In short: as §3

S. aureus 481 = assay: MIC, hospital MRSA strain; type: cell-based, Staphylococcus aureus; conditions: for MIC: hospital MRSA S. aureus 481
In short: as §3

O=[N+]([O-])c1cc(NC2=[N+](c3ccc(Cl)c([N+](=O)[O-])c3)[Cu-2]3([S]2)[S]C(Nc2ccc(Cl)c([N+](=O)[O-])c2)=[N+]3c2ccc(Cl)c([N+](=O)[O-])c2)ccc1Cl [Compound 6, Copper (II) complex with 1,3-bis(4-chloro-3-nitrophenyl)thiourea]
MIC (S. epidermidis 433): 64 µg/mL | MIC (S. epidermidis 471): 64 µg/mL | MIC (S. epidermidis 420): 64 µg/mL | MIC (S. epidermidis 431): 64 µg/mL | MIC (S. epidermidis 423): 64 µg/mL | MIC (S. epidermidis 511): 64 µg/mL | MIC (S. epidermidis 438): 128 µg/mL | MIC (S. epidermidis 469): 64 µg/mL | MIC (S. epidermidis 515): 64 µg/mL | MIC (S. epidermidis 432): 64 µg/mL | MIC (S. epidermidis 510): 64 µg/mL | MIC (S. epidermidis 437): 128 µg/mL | MIC (S. epidermidis 435): 128 µg/mL | MIC (S. epidermidis 424): 64 µg/mL | MIC (S. epidermidis 436): 128 µg/mL | MIC (S. epidermidis 513): 64 µg/mL | MIC (S. aureus ATCC 25923): 8 µg/mL | MIC (S. aureus ATCC 29213): 8 µg/mL | MIC (S. aureus NCTC 4163): 8 µg/mL | MIC (S. aureus ATCC 6538): 8 µg/mL | MIC (S. aureus 572): 32 µg/mL | MIC (S. aureus 495): 32 µg/mL | MIC (S. aureus 496): 32 µg/mL | MIC (S. aureus 497): 32 µg/mL | MIC (S. aureus 573): 32 µg/mL | MIC (S. aureus 567): 32 µg/mL | MIC (S. aureus 537): 32 µg/mL | MIC (S. aureus 586): 32 µg/mL | MIC (S. aureus 481): 32 µg/mL

O=[N+]([O-])c1cc([N+]2=C(Nc3ccc(F)c(Cl)c3)[S][Cu-2]23[S]C(Nc2ccc(F)c(Cl)c2)=[N+]3c2ccc(Cl)c([N+](=O)[O-])c2)ccc1Cl [Compound 4, Copper (II) complex with 1-(3-chloro-4-fluorophenyl)-3-(4-chloro-3-nitrophenyl)thiourea]
MIC (S. epidermidis 433): 4 µg/mL | MIC (S. epidermidis 471): 8 µg/mL | MIC (S. epidermidis 420): 4 µg/mL | MIC (S. epidermidis 431): 8 µg/mL | MIC (S. epidermidis 423): 4 µg/mL | MIC (S. epidermidis 511): 4 µg/mL | MIC (S. epidermidis 438): 8 µg/mL | MIC (S. epidermidis 469): 4 µg/mL | MIC (S. epidermidis 515): 4 µg/mL | MIC (S. epidermidis 432): 8 µg/mL | MIC (S. epidermidis 510): 8 µg/mL | MIC (S. epidermidis 437): 8 µg/mL | MIC (S. epidermidis 435): 8 µg/mL | MIC (S. epidermidis 424): 8 µg/mL | MIC (S. epidermidis 436): 8 µg/mL | MIC (S. epidermidis 513): 8 µg/mL | MIC (S. aureus ATCC 25923): 4 µg/mL | MIC (S. aureus ATCC 29213): 4 µg/mL | MIC (S. aureus NCTC 4163): 4 µg/mL | MIC (S. aureus ATCC 6538): 4 µg/mL | times more active than ciprofloxacin (S. aureus 572; S. aureus 572): 64 times | MIC (S. aureus 572): 4 µg/mL | MIC (S. aureus 495): 4 µg/mL | MIC (S. aureus 496): 8 µg/mL | MIC (S. aureus 497): 8 µg/mL | MIC (S. aureus 573): 4 µg/mL | MIC (S. aureus 567): 4 µg/mL | MIC (S. aureus 537): 4 µg/mL | MIC (S. aureus 586): 4 µg/mL | times more active than ciprofloxacin (S. aureus 481; S. aureus 481): 64 times | MIC (S. aureus 481): 4 µg/mL

O=[N+]([O-])c1cc([N+]2=C(Nc3cccc(Br)c3)[S][Cu-2]23[S]C(Nc2cccc(Br)c2)=[N+]3c2ccc(Cl)c([N+](=O)[O-])c2)ccc1Cl [Compound 2, Copper (II) complex with 1-(3-bromophenyl)-3-(4-chloro-3-nitrophenyl)thiourea]
MIC (S. epidermidis 433): 8 µg/mL | MIC (S. epidermidis 471): 8 µg/mL | MIC (S. epidermidis 420): 8 µg/mL | MIC (S. epidermidis 431): 8 µg/mL | MIC (S. epidermidis 423): 8 µg/mL | MIC (S. epidermidis 511): 8 µg/mL | MIC (S. epidermidis 438): 8 µg/mL | MIC (S. epidermidis 469): 8 µg/mL | MIC (S. epidermidis 515): 8 µg/mL | MIC (S. epidermidis 432): 8 µg/mL | MIC (S. epidermidis 510): 8 µg/mL | MIC (S. epidermidis 437): 8 µg/mL | MIC (S. epidermidis 435): 8 µg/mL | MIC (S. epidermidis 424): 8 µg/mL | MIC (S. epidermidis 436): 8 µg/mL | MIC (S. epidermidis 513): 8 µg/mL | MIC (S. aureus ATCC 25923): 16 µg/mL | MIC (S. aureus ATCC 29213): 16 µg/mL | MIC (S. aureus NCTC 4163): 16 µg/mL | MIC (S. aureus ATCC 6538): 16 µg/mL | MIC (S. aureus 572): 8 µg/mL | MIC (S. aureus 495): 8 µg/mL | MIC (S. aureus 496): 8 µg/mL | MIC (S. aureus 497): 8 µg/mL | MIC (S. aureus 573): 8 µg/mL | MIC (S. aureus 567): 8 µg/mL | MIC (S. aureus 537): 8 µg/mL | MIC (S. aureus 586): 8 µg/mL | MIC (S. aureus 481): 8 µg/mL

Source: PMC8584173, “The Cytotoxic Effect of Copper (II) Complexes with Halogenated 1,3-Disubstituted Arylthioureas on Cancer and Bacterial Cells” (International Journal of Molecular Sciences, 2021)
